Where two headings read alike, the source gives them in different places.
Columns and labels:
human α4β2 nAChRs = molecular target: T1, human α4β2 nAChRs (Homo sapiens, UniProt P17787+P43681); experiment: 86Rb+ efflux assay in cells expressing human α4β2 nAChRs; assay type: cell-based; settings: for IC50: desensitization, 10 min pre-treatment before 100 μM (−)-nicotine; for α4β2 Emax: efficacy compared to 100 μM (−)-nicotine
T1 construct: expressed in transfected cells
Procedure: (§1) The functional properties of the ligands were determined by ^86Rb^| efflux assays in cells expressing α3β4 and α4β2 nAChR subtypes. The functional activity of each ligand was measured for its agonism, antagonism and desensitization ability. Agonist activity for each of the ligands was tested at eight different concentrations. […] The full concentration-effect curves generated potency (EC50) and efficacy (Emax) of each ligand. […] Each ligand was tested for antagonist activity at eight concentrations. The potency (IC50(0′)) of each ligand as an antagonist was derived from the full concentration-effect curves. […] Although ^86Rb^+ efflux assays are mainly used to determine functional properties, whole cell current measurements were also used to verify the key experiments.
(§2) In Vitro Effects on nAChR Function. […] Their agonist activities were assessed by measuring stimulated ^86Rb^+ efflux from stably transfected cells, either expressing human α4β2 nAChRs or rat α3β4 receptors.
(§3) The cell lines expressing defined rat nAChR subtypes were established previously by stably transfecting HEK 293 cells with rat nAChR subunit genes. The cell line expressing human α4β2 nAChRs, YXα4β2H1, was established recently. These cell lines were maintained in minimum essential medium (MEM) supplemented with 10% fetal bovine serum, 100 units/mL penicillin G, […] streptomycin and selective antibiotics at 37° C. with 5% CO2 in a humidified incubator. Fetal bovine scrum was provided by Gemini Bio-Products (Woodland, Calif.). Tissue culture medium and antibiotics were obtained from Invitrogen Corporation (Carlsbad, Calif.), unless otherwise stated.
(§4) Functional properties of compounds at nAChRs expressed in the transfected cells were measured using ^86Rb^+ efflux assays as described previously. In brief, cells expressing human α4β2 or rat α3β4 nAChRs were plated into 24-well plates coated with poly-D-lysine. The plated cells were grown at 37° C. for 18 to 24 hour to reach 85-95% confluence. The cells were then incubated in growth medium (0.5 mL/well) containing ^86Rb^+ (2 μCi/mL) for 4 hour at 37° C. The loading mixture was then aspirated, and the cells were washed four times with 1 mL buffer (15 mM HEPES, 140 mM NaCl, 2 mM KCl, 1 mM MgSO4, 1.8 mM CaCl2, 11 mM Glucose, pH 7.4). One mL of buffer with or without compounds to be tested was then added to each well. After incubation for 2 min, the assay buffer was collected for measurements of ^86R^+ released from the cells. Cells were then lysed by adding 1 mL of 100 mM NaOH to each well, and the lysate was collected for determination of the amount of ^86Rb^+ that was in the cells at the end of the efflux assay. Radioactivity of assay samples and lysates was measured by liquid scintillation counting. Total loading (cpm) was calculated as the sum of the assay sample and the lysate of each well. The amount of ^86Rb^+ efflux was expressed as a percentage of ^86Rb^| loaded. […] For obtaining EC50 and Emax values, stimulation curves were constructed in which 8 different concentrations of a ligand were included in the assay. […] EC50, Emax and IC50(10′) values were determined by nonlinear least-squares regression analyses (GraphPad, San Diego, Calif.).

α4β2 nAChR = molecular target: T2, α4β2 nAChR (Rattus norvegicus, UniProt P09483+P12390); experiment: [3H]-epibatidine competition binding, α4β2 nAChR in stably transfected HEK 293 cells; settings: competition against [3H]-epibatidine
T2 construct: expressed in transfected cells; host or cells: HEK 293
From the text: (§5) Pharmacological Properties. We measured the in vitro binding affinities of the ligands for defined receptor subtypes (α2β2, α2β4, α3β2, α3β4, α4β2, α4β4, α6β2, α6β4, and α7) expressed in stably transfected cell lines. […] Rat forebrain homogenates were included to allow comparison between the heterologous and native α4β2 and α7 nAChRs.
(§6) To determine selectivities of these compounds in binding assays among the three predominant nAChR subtypes, α3β4, α4β2, and α7, the ratios of Ki values (α3β4/α4β2 and α7/α4β2) were determined.
as §3
(§7) Briefly, cultured cells at >80% confluence were removed from their flasks (80 cm^2) with a disposable cell scraper and placed in 10 mL of 50 mM Tris⋅HCl buffer (pH 7.4, 4° C.). The cell suspension was centrifuged at 10,000×g for 5 min and the pellet was collected. The cell pellet was then homogenized in 10 mL buffer with a polytron homogenizer and centrifuged at 36,000 g for 10 min at 4° C. The membrane pellet was resuspended in fresh buffer, and aliquots of the membrane preparation were used for binding assays. […] Bound and free ligands were separated by vacuum filtration through Whatman GF/C filters treated with 0.5% polyethylenimine. The filter-retained radioactivity was measured by liquid scintillation counting. Specific binding was defined as the difference between total binding and nonspecific binding. Data from competition binding assays were analyzed using Prism 5 (GraphPad Software, San Diego, Calif.).

rat α3β4 nAChRs = molecular target: T3, rat α3β4 nAChRs (Rattus norvegicus, UniProt P04757+P12392); experiment: 86Rb+ efflux assay in cells expressing rat α3β4 nAChRs; assay type: cell-based; settings: for α3β4 Emax: efficacy compared to 100 μM (−)-nicotine; for Emax: read-out: α3β4 Emax
T3 construct: expressed in transfected cells; host or cells: HEK 293
Procedure: as §1, §2, §3, §4

α3β4 nAChR = molecular target: T4, α3β4 nAChR (Rattus norvegicus, UniProt P04757+P12392); experiment: [3H]-epibatidine competition binding, α3β4 nAChR in stably transfected HEK 293 cells; settings: competition against [3H]-epibatidine
T4 construct: expressed in transfected cells; host or cells: HEK 293
From the text: as §5, §6, §3, §7

α7 nAChR = molecular target: T5, α7 nAChR (Rattus norvegicus, UniProt Q05941); experiment: biochemical; assay type: binding; settings: competition against [3H]-epibatidine
T5 construct: expressed in transfected cells; host or cells: HEK 293
From the text: as §5, §6
as §3, with “Fetal bovine scrum was provided by Gemini Bio-Products (Woodland, Calif.). Tissue culture medium and antibiotics were obtained from Invitrogen Corporation (Carlsbad, Calif.), unless otherwise stated.” left out
Briefly, cultured cells at >80% confluence were removed from their flasks (80 cm^2) with a disposable cell scraper and placed in 10 mL of 50 mM Tris⋅HCl buffer (pH 7.4, 4° C.). […] The filter-retained radioactivity was measured by liquid scintillation counting. […] Data from competition binding assays were analyzed using Prism 5 (GraphPad Software, San Diego, Calif.).

[1] = agonist activity, stimulated 86Rb+ efflux, read-out: α3β4 EC50

CN1CCCC1c1cccnc1 (single isomer, unassigned; (-)) [(−)-Nicotine]
agonist activity at the α4β2 nAChRs (in words) (human α4β2 nAChRs): full agonist activities
Emax (human α4β2 nAChRs; read-out: α4β2 Emax): 100%

OCCCCC#Cc1cncc(OC[C@@H]2CCN2)c1 [Sazetidine-A]
Ki (α4β2 nAChR): 0.034 nM
EC50 (rat α3β4 nAChRs; [1]): 730 nM
IC50 (rat α3β4 nAChRs; desensitization, 10 min pre-treatment before 100 μM (−)-nicotine): 1300 nM
α3β4 Emax (rat α3β4 nAChRs): 96%
Ki (α3β4 nAChR): 6.5 nM
Ki (α7 nAChR): 670 nM
EC50 (human α4β2 nAChRs; agonist activity, stimulated 86Rb+ efflux, read-out: α4β2 EC50): 24 nM
IC50 (human α4β2 nAChRs): 11 nM
α4β2 Emax (human α4β2 nAChRs): 40%

c1cnc2cc3c(cc2n1)[C@@H]1CNC[C@H]3C1 [Varenicline]
Ki (α4β2 nAChR): 0.14 nM
EC50 (rat α3β4 nAChRs; [1]): 3200 nM
α3β4 Emax (rat α3β4 nAChRs): 82%
Ki (α3β4 nAChR): 27 nM

CCCCC#Cc1cnc(C)c(OC[C@@H]2CCN2)c1 [YL-1-127, (S)-3-(azetidin-2-ylmethoxy)-5-(hex-1-ynyl)-2-methylpyridine]
Ki (α4β2 nAChR): 14 nM
EC50 (rat α3β4 nAChRs): 11000 nM
Emax (rat α3β4 nAChRs): 10%
agonist activity at the α3β4 nAChRs (in words) (rat α3β4 nAChRs; stimulated 86Rb+ efflux): did not show detectable agonist activity
Ki (α3β4 nAChR): 575 nM
IC50 (human α4β2 nAChRs): 260 nM

FCCCCC#Cc1cnc(F)c(OC[C@@H]2CCN2)c1 [YL-2-203, (S)-3-(azetidin-2-ylmethoxy)-2-fluoro-5-(6-fluorohex-1-ynyl)pyridine di-trifluoroacetic acid]
Ki (α4β2 nAChR): 0.2 nM
EC50 (rat α3β4 nAChRs): 6300 nM
Emax (rat α3β4 nAChRs): 26%
agonist activity at the α3β4 nAChRs (in words) (rat α3β4 nAChRs; stimulated 86Rb+ efflux): did not show detectable agonist activity
Ki (α3β4 nAChR): 93 nM
Ki (α7 nAChR): 11000 nM
EC50 (human α4β2 nAChRs): 35 nM
α4β2 Emax (human α4β2 nAChRs; di-trifluoroacetic acid): 33%
Emax (human α4β2 nAChRs; read-out: α4β2 Emax, efficacy compared to 100 μM (−)-nicotine): < 33%
